According to US10913773B2, “Bicyclic peptidyl inhibitor of tumor necrosis factor-alpha” (Ohio State Innovation Foundation, priority 2016, dated 2021):

Test system: TNFα-induced cell death in WEHI-13VAR fibroblasts (recombinant human TNFα)
Type: cell-based
Method: WEHI-13VAR fibroblasts were purchased from American Type Culture Collection (ATCC). For maintenance, cells were grown in full medium as RPMI-1640 supplemented with 10% FBS and 1% Abs. For toxicity assay, cells were seeded in a 96-well plate at a density of 5×10^3 cells/well in 100 μL of RPMI-1640/1% Abs supplemented with 10% or 5% FBS and allowed to grow overnight. Varying concentrations of recombinant human TNFα (0-250 ng/mL) or commercial mouse TNFα were (0-100 pg/mL) were incubated with 10 μM peptide and actinomycin D (1 μg/mL) in 100 μL of corresponding growth medium for 1 h at 37° C. Next, the medium in the 96-well plate was removed and replaced with the above fresh mixture and the cells were incubated overnight. Next day, 10 μL of the 3-(4, 5-dimethylthiazolyl-2)-2, 5-diphenyltetrazolium bromide (MTT, final concentration 0.5 mg/ml) was added to each well and incubated at 37° C. for 3 h, following by the addition of 100 μL of the MTT solubilization solution. The plate was kept in the incubator overnight to let the formazan crystals to completely dissolve, and the absorbance at 570 nm was measured on a TECAN plate reader. The LD50 was obtained as plotting the viability as a function of the TNFα concentration.
One of the biological functions of TNFα is to induce death signaling. Inhibitors against the TNFα-TNFR interaction are expected to protect cells against TNFα induced cell death. Therefore, anticachexin C1, C1-74, and C1-74-2 through C1-74-5 were compared for their ability to protect cultured WEHI-13 VAR fibroblasts, which are highly sensitive to TNFα in the presence of actinomycin-D, against TNFα-induced cell death (Khabar, K. S. A.; et al., “WEHI-13VAR: A Stable and Sensitive Variant of WEHI 164 Clone 13 Fibrosarcoma for Tumor Necrosis Factor Bioassay.” Immunol. Lett. 1995, 46:107-110). The cells were treated with a fixed concentration of peptides (10 μM) and varying concentrations of TNFα (0-1 μM), and the fraction of live cells was quantitated by the 3-(4,5-dimethylthiazol-2-yl)-2,5-diphenyltetrazolium bromide (MTT) assay. […] The MTT assay was also conducted at a fixed concentration of TNFα (0.4 ng/mL) but varying concentrations of peptides (0-10 μM).

## CC(=O)[C@@H]1CCCN(C(=O)[C@@H](Cc2c[nH]cn2)NC(=O)C(N)C(C)C)C1 (some centres unmarked) [Compound C1-74-2]
  EC50: ~50 nM
0.4 ng/mL TNFα
  Concentration giving almost complete protection: ≥ 100 nM
